In PubChem BioAssay AID1963450 (Molecular Pharmacology Branch, DTP, NCI, 2024):
Values joined by “and” are separate entries in the source; they are usually repeats but may differ in a detail not shown here. Equal values may be shown once.

Tested on: 556581-035-R-J1-PDC complex spheroid growth
Experiment: Anticancer human tumor 556581-035-R-J1-PDC patient-derived ovarian carcinoma cell line growth inhibition [Asc]
Conditions: for viability, T/C: stronger effect = lower value
In short: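 Complex spheroids combining tumor cells with HUVEC endothelial cells and human MSCs, at 37 degrees C, 5% CO2; agents tested alone or combined, half-log dilutions from at or near clinical Cmax, or 10 microM if Cmax unknown.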

[1] = curve of first compound, second compound 0.01 µM
[2] = curve of first compound, second compound 0.0316 µM
[3] = curve of first compound, second compound 0.1 µM
[4] = curve of first compound, second compound 0.316 µM
[5] = curve of first compound, second compound 1 µM
[6] = second compound 0.01 µM, first compound 0.00949 µM
[7] = second compound 0.01 µM, first compound 0.03 µM
[8] = second compound 0.01 µM, first compound 0.0949 µM
[9] = second compound 0.01 µM, first compound 0.3 µM
[10] = second compound 0.01 µM, first compound 0.949 µM
[11] = second compound 0.01 µM, first compound 3 µM
[12] = second compound 0.0316 µM, first compound 0.00949 µM
[13] = second compound 0.0316 µM, first compound 0.03 µM
[14] = second compound 0.0316 µM, first compound 0.0949 µM
[15] = second compound 0.0316 µM, first compound 0.3 µM
[16] = second compound 0.0316 µM, first compound 0.949 µM
[17] = second compound 0.0316 µM, first compound 3 µM
[18] = second compound 0.1 µM, first compound 0.00949 µM
[19] = second compound 0.1 µM, first compound 0.03 µM
[20] = second compound 0.1 µM, first compound 0.0949 µM
[21] = second compound 0.1 µM, first compound 0.3 µM
[22] = second compound 0.1 µM, first compound 0.949 µM
[23] = second compound 0.1 µM, first compound 3 µM
[24] = second compound 0.316 µM, first compound 0.00949 µM
[25] = second compound 0.316 µM, first compound 0.03 µM
[26] = second compound 0.316 µM, first compound 0.0949 µM
[27] = second compound 0.316 µM, first compound 0.3 µM
[28] = second compound 0.316 µM, first compound 0.949 µM
[29] = second compound 0.316 µM, first compound 3 µM
[30] = second compound 1 µM, first compound 0.00949 µM
[31] = second compound 1 µM, first compound 0.03 µM
[32] = second compound 1 µM, first compound 0.0949 µM
[33] = second compound 1 µM, first compound 0.3 µM
[34] = second compound 1 µM, first compound 0.949 µM
[35] = second compound 1 µM, first compound 3 µM
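Note: spheroids exposed to agents for 7 days before viability read.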

SMILES: Cc1nc(N2CCC3(CC2)COC(C)C3N)c(CO)nc1Sc1ccnc(N)c1Cl (stereo unspecified) + CNC(C)C(=O)NC1CN(S(=O)(=O)c2cccc(S(=O)(=O)N3CCC4CCC(C(=O)NC(c5ccccc5)c5ccccc5)N4C(=O)C(NC(=O)C(C)NC)C3)c2)CCC2CCC(C(=O)NC(c3ccccc3)c3ccccc3)N2C1=O
- IC50 (curve of first compound, second compound 0.00316 µM): > 3 µM
- IC50 [1]: > 3 µM
- IC50 [2]: 1.96 µM
- IC50 [3]: 1.21 µM
- IC50 [4]: 0.278 µM
- IC50 [5]: 0.184 µM
- viability, T/C (second compound 0.00316 µM, first compound 0.00949 µM): 107%
- viability, T/C (second compound 0.00316 µM, first compound 0.03 µM): 95.9%
- viability, T/C (second compound 0.00316 µM, first compound 0.0949 µM): 90.2%
- viability, T/C (second compound 0.00316 µM, first compound 0.3 µM): 79.4%
- viability, T/C (second compound 0.00316 µM, first compound 0.949 µM): 80%
- viability, T/C (second compound 0.00316 µM, first compound 3 µM): 49.1%
- viability, T/C [6]: 107%
- viability, T/C [7]: 94.5%
- viability, T/C [8]: 76%
- viability, T/C [9]: 73.8%
- viability, T/C [10]: 64.9%
- viability, T/C [11]: 53.2%
- viability, T/C [12]: 91.4%
- viability, T/C [13]: 81.8%
- viability, T/C [14]: 75.3%
- viability, T/C [15]: 58.5%
- viability, T/C [16]: 59%
- viability, T/C [17]: 45.9%
- viability, T/C [18]: 86.3%
- viability, T/C [19]: 78.9%
- viability, T/C [20]: 71.8%
- viability, T/C [21]: 55.4%
- viability, T/C [22]: 58.4%
- viability, T/C [23]: 40.4%
- viability, T/C [24]: 74.8%
- viability, T/C [25]: 63.4%
- viability, T/C [26]: 59.4%
- viability, T/C [27]: 46.2%
- viability, T/C [28]: 46.3%
- viability, T/C [29]: 38.3%
- viability, T/C [30]: 61.2%
- viability, T/C [31]: 61.9%
- viability, T/C [32]: 51%
- viability, T/C [33]: 46.8%
- viability, T/C [34]: 40.8%
- viability, T/C [35]: 28.9%

SMILES: CCN1C(C(=O)NC23CCC(C(=O)O)(CC2)CC3)C(c2cccc(Cl)c2F)C2(C(=O)Nc3cc(Cl)ccc32)C12CCCCC2 (stereo unspecified) + CNC(C)C(=O)NC1CN(S(=O)(=O)c2cccc(S(=O)(=O)N3CCC4CCC(C(=O)NC(c5ccccc5)c5ccccc5)N4C(=O)C(NC(=O)C(C)NC)C3)c2)CCC2CCC(C(=O)NC(c3ccccc3)c3ccccc3)N2C1=O
- IC50 [1]: > 3 µM
- IC50 [2]: > 3 µM
- IC50 [3]: > 3 µM
- IC50 [4]: > 3 µM
- IC50 [5]: > 3 µM
- viability, T/C [6]: 82.8%
- viability, T/C [7]: 98.8%
- viability, T/C [8]: 97.1%
- viability, T/C [9]: 86.2%
- viability, T/C [10]: 92.2%
- viability, T/C [11]: 86.9%
- viability, T/C [12]: 83.2%
- viability, T/C [13]: 85.7%
- viability, T/C [14]: 82.3%
- viability, T/C [15]: 87.8%
- viability, T/C [16]: 91.2%
- viability, T/C [17]: 102%
- viability, T/C [18]: 79%
- viability, T/C [19]: 88.9%
- viability, T/C [20]: 84.3%
- viability, T/C [21]: 67.7%
- viability, T/C [22]: 90%
- viability, T/C [23]: 90.3%
- viability, T/C [24]: 77.1%
- viability, T/C [25]: 78.9%
- viability, T/C [26]: 77.6%
- viability, T/C [27]: 84.9%
- viability, T/C [28]: 73.4%
- viability, T/C [29]: 69.7%
- viability, T/C [30]: 71.5%
- viability, T/C [31]: 72.5%
- viability, T/C [32]: 65.9%
- viability, T/C [33]: 68.4%
- viability, T/C [34]: 68%
- viability, T/C [35]: 72.4%

SMILES: NC(=O)C(=Cn1cnc(-c2cc(C(F)(F)F)cc(C(F)(F)F)c2)n1)c1cncnc1
- viability, T/C (compound 0.000949 µM): 96.8% and 78.4% and 91%
- viability, T/C (compound 0.003 µM): 79.9% and 83.7% and 94.9%
- viability, T/C (compound 0.00949 µM): 97.6% and 97.4% and 87%
- viability, T/C (compound 0.03 µM): 88.8% and 107% and 101%
- viability, T/C (compound 0.0949 µM): 97.1% and 55.4% and 87.1%
- viability, T/C (compound 0.3 µM): 95.9% and 77.4% and 102%
- IC50 (curve of compound): > 0.3 µM

SMILES: O=C(c1ccc(F)c(F)c1Nc1ccc(I)cc1F)N1CC(O)([C@@H]2CCCCN2)C1 + Cc1c(S(C)(=O)=O)c(-c2cc(F)cc(N3CCN(c4ccc(NS(=O)(=O)c5ccc(NC(CCN6CCC(C(=O)OCCCP(=O)(O)O)CC6)CSc6ccccc6)c(S(=O)(=O)C(F)(F)F)c5)cc4)CC3)c2)c(-c2ccc(Cl)cc2)n1C(C)C
- IC50 [3]: 0.0929 µM
- IC50 [4]: 0.0554 µM
- IC50 [5]: 0.044 µM
- IC50 (curve of first compound, second compound 3.16 µM): 0.0566 µM
- IC50 (curve of first compound, second compound 10 µM): 0.00493 µM
- viability, T/C (second compound 0.1 µM, first compound 0.00316 µM): 73%
- viability, T/C (second compound 0.1 µM, first compound 0.01 µM): 66.8%
- viability, T/C (second compound 0.1 µM, first compound 0.0316 µM): 72.6%
- viability, T/C (second compound 0.1 µM, first compound 0.1 µM): 44.9%
- viability, T/C (second compound 0.1 µM, first compound 0.316 µM): 23.8%
- viability, T/C (second compound 0.1 µM, first compound 1 µM): 4.45%
- viability, T/C (second compound 0.316 µM, first compound 0.00316 µM): 59.6%
- viability, T/C (second compound 0.316 µM, first compound 0.01 µM): 58.8%
- viability, T/C (second compound 0.316 µM, first compound 0.0316 µM): 61.6%
- viability, T/C (second compound 0.316 µM, first compound 0.1 µM): 39.4%
- viability, T/C (second compound 0.316 µM, first compound 0.316 µM): 21.6%
- viability, T/C (second compound 0.316 µM, first compound 1 µM): 25.9%
- viability, T/C (second compound 1 µM, first compound 0.00316 µM): 70%
- viability, T/C (second compound 1 µM, first compound 0.01 µM): 73.7%
- viability, T/C (second compound 1 µM, first compound 0.0316 µM): 57.1%
- viability, T/C (second compound 1 µM, first compound 0.1 µM): 29.5%
- viability, T/C (second compound 1 µM, first compound 0.316 µM): 8.66%
- viability, T/C (second compound 1 µM, first compound 1 µM): 1.82%
- viability, T/C (second compound 3.16 µM, first compound 0.00316 µM): 67.7%
- viability, T/C (second compound 3.16 µM, first compound 0.01 µM): 54.5%
- viability, T/C (second compound 3.16 µM, first compound 0.0316 µM): 57.4%
- viability, T/C (second compound 3.16 µM, first compound 0.1 µM): 45.5%
- viability, T/C (second compound 3.16 µM, first compound 0.316 µM): 22.3%
- viability, T/C (second compound 3.16 µM, first compound 1 µM): 4.54%
- viability, T/C (second compound 10 µM, first compound 0.00316 µM): 49.6%
- viability, T/C (second compound 10 µM, first compound 0.01 µM): 51.9%
- viability, T/C (second compound 10 µM, first compound 0.0316 µM): 40.5%
- viability, T/C (second compound 10 µM, first compound 0.1 µM): 15.2%
- viability, T/C (second compound 10 µM, first compound 0.316 µM): 38.4%
- viability, T/C (second compound 10 µM, first compound 1 µM): 16%

SMILES: C#Cc1c(F)ccc2cc(O)cc(-c3ncc4c(N5CC6CCC(C5)N6)nc(OCC56CCCN5CC(F)C6)nc4c3F)c12 (stereo unspecified)
- viability, T/C (compound 0.0316 µM): 101% and 92.2% and 88%
- viability, T/C (compound 0.1 µM): 105% and 102% and 87.2%
- viability, T/C (compound 0.316 µM): 94.2% and 81% and 90.1%
- viability, T/C (compound 1 µM): 102% and 80.5% and 75.8%
- viability, T/C (compound 3.16 µM): 97.2% and 89.5% and 113%
- viability, T/C (compound 10 µM): 91.1% and 85.6% and 83.9%
- IC50 (curve of compound): > 10 µM
